Key:
Assay in all cases: relative viability (nuclei count vs DMSO), 5 days (fraction); higher = more cells survive
Etoposide + Navitoclax = compound: COc1cc([C@@H]2c3cc4c(cc3[C@@H](O[C@@H]3O[C@@H]5CO[C@@H](C)O[C@H]5[C@H](O)[C@H]3O)[C@H]3COC(=O)[C@H]23)OCO4)cc(OC)c1O [Etoposide] + CC1(C)CCC(c2ccc(Cl)cc2)=C(CN2CCN(c3ccc(C(=O)NS(=O)(=O)c4ccc(N[C@H](CCN5CCOCC5)CSc5ccccc5)c(S(=O)(=O)C(F)(F)F)c4)cc3)CC2)C1 [Navitoclax] (partner 0.5 µM)
How it was run: (§1)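 One day after seeding in 1536-well plates, lung cancer cell lines were dosed by pin tool. Dosing was either single-drug or a fixed anchor-drug dose plus five library-drug doses (not always all listed) in √10 steps. After 5 days, nuclei were stained in one fix-and-stain step and counted on 4× images, and relative viability is the nuclei count of treated wells over that of vehicle wells, given as the median of duplicate plates.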

Bleomycin + Tozasertib = compound: CC1=C(N=C(N=C1N)[C@H](CC(=O)N)NC[C@@H](C(=O)N)N)C(=O)N[C@@H]([C@H](C2=CN=CN2)OC3C(C(C(C(O3)CO)O)O)OC4C(C(C(C(O4)CO)O)OC(=O)N)O)C(=O)N[C@H](C)[C@H]([C@H](C)C(=O)N[C@@H]([C@@H](C)O)C(=O)NCCC5=NC(=CS5)C6=NC(=CS6)C(=O)NCCC[S+](C)C)O [Bleomycin] + Cc1cc(Nc2cc(N3CCN(C)CC3)nc(Sc3ccc(NC(=O)C4CC4)cc3)n2)n[nH]1 [Tozasertib] (partner 0.1 µM); settings: main component drawn
How it was run: as §1

Etoposide + Crizotinib = compound: COc1cc([C@@H]2c3cc4c(cc3[C@@H](O[C@@H]3O[C@@H]5CO[C@@H](C)O[C@H]5[C@H](O)[C@H]3O)[C@H]3COC(=O)[C@H]23)OCO4)cc(OC)c1O [Etoposide] + C[C@@H](Oc1cc(-c2cnn(C3CCNCC3)c2)cnc1N)c1c(Cl)ccc(F)c1Cl [Crizotinib] (partner 1 µM)
How it was run: as §1

Etoposide + Pemetrexed = compound: COc1cc([C@@H]2c3cc4c(cc3[C@@H](O[C@@H]3O[C@@H]5CO[C@@H](C)O[C@H]5[C@H](O)[C@H]3O)[C@H]3COC(=O)[C@H]23)OCO4)cc(OC)c1O [Etoposide] + Nc1nc2[nH]cc(CCc3ccc(C(=O)N[C@@H](CCC(=O)O)C(=O)O)cc3)c2c(=O)[nH]1 [Pemetrexed] (partner 0.2 µM)
How it was run: as §1

Row | Cell Line | relative viability (Etoposide + Navitoclax; first compound 0.01 µM) | relative viability (Etoposide + Navitoclax; first compound 0.03162 µM) | relative viability (Etoposide + Navitoclax; first compound 0.1 µM) | relative viability (Etoposide + Navitoclax; first compound 0.3162 µM) | relative viability (Etoposide + Navitoclax; first compound 1 µM) | relative viability (Bleomycin + Tozasertib; first compound 0.01 µM) | relative viability (Bleomycin + Tozasertib; first compound 0.03162 µM) | relative viability (Bleomycin + Tozasertib; first compound 0.1 µM) | relative viability (Bleomycin + Tozasertib; first compound 0.3162 µM) | relative viability (Bleomycin + Tozasertib; first compound 1 µM) | relative viability (Etoposide + Crizotinib; first compound 0.01 µM) | relative viability (Etoposide + Crizotinib; first compound 0.03162 µM) | relative viability (Etoposide + Crizotinib; first compound 0.1 µM) | relative viability (Etoposide + Crizotinib; first compound 0.3162 µM) | relative viability (Etoposide + Crizotinib; first compound 1 µM) | relative viability (Etoposide + Pemetrexed; first compound 0.01 µM) | relative viability (Etoposide + Pemetrexed; first compound 0.03162 µM) | relative viability (Etoposide + Pemetrexed; first compound 0.1 µM) | relative viability (Etoposide + Pemetrexed; first compound 0.3162 µM) | relative viability (Etoposide + Pemetrexed; first compound 1 µM)
1 | HCC-44 | 0.845 | 1.05 | 1.1 | 0.882 | 0.496 | 0.273 | 0.312 | 0.302 | 0.19 | 0.137 | 0.82 | 0.807 | 0.812 | 0.696 | 0.351 | 0.64 | 0.684 | 0.801 | 0.64 | 0.601
2 | HCC-827 | 1.03 | 0.985 | 0.956 | 0.613 | 0.331 | 0.419 | 0.453 | 0.332 | 0.311 | 0.205 | 0.879 | 0.941 | 0.662 | 0.394 | 0.228 | 0.262 | 0.266 | 0.127 | 0.236 | 0.192
3 | NCI-H1623 | – | – | – | – | – | 0.393 | 0.427 | 0.417 | 0.301 | 0.32 | – | – | – | – | – | – | – | – | – | –
4 | NCI-H2405 | 0.801 | 0.912 | 0.532 | 0.513 | 0.187 | 0.703 | 0.758 | 0.682 | 0.475 | 0.398 | 0.804 | 0.962 | 0.717 | 0.694 | 0.33 | 1.07 | 1.14 | 0.846 | 0.935 | 0.365
5 | PC-3 [JPC-3] | 0.784 | 0.825 | 0.6 | 0.787 | 0.703 | 0.799 | 0.813 | 0.781 | 0.537 | 0.492 | 0.955 | 1.01 | 1.05 | 0.969 | 0.722 | 1.1 | 1.23 | 1.09 | 0.977 | 0.706
6 | NCI-H1651 | 0.866 | 0.881 | 0.808 | 0.242 | 0.154 | 0.529 | 0.455 | 0.303 | 0.156 | 0.105 | 0.815 | 0.827 | 0.629 | 0.301 | 0.202 | 0.707 | 0.728 | 0.466 | 0.382 | 0.127
7 | HARA | 1.11 | 1.16 | 1.17 | 0.864 | 0.337 | 0.0994 | 0.118 | 0.107 | 0.1 | 0.081 | 0.801 | 1.11 | 1.11 | 0.611 | 0.192 | 0.235 | 0.309 | 0.25 | 0.261 | 0.232
8 | NCI-H1650 | 1.25 | 1.19 | 0.885 | 0.353 | 0.309 | 0.307 | 0.234 | 0.213 | 0.189 | 0.178 | 0.874 | 0.776 | 0.634 | 0.253 | 0.16 | 0.354 | 0.376 | 0.388 | 0.239 | 0.223
9 | NCI-H1395 | 1.21 | 1.15 | 0.893 | 0.988 | 0.682 | 0.646 | 0.695 | 0.619 | 0.407 | 0.404 | – | – | – | – | – | 0.765 | 0.894 | 0.758 | 0.823 | 0.599
10 | NCI-H2087 | – | 1.05 | 0.941 | 0.727 | 0.264 | – | 0.198 | 0.186 | 0.14 | 0.119 | – | 1.02 | 0.856 | 0.571 | 0.277 | 0.641 | 0.723 | 0.703 | 0.582 | 0.374
11 | LU99A | 0.828 | 0.898 | 0.45 | 0.311 | 0.189 | 0.27 | 0.25 | 0.216 | 0.193 | 0.147 | 0.577 | 0.512 | 0.388 | 0.288 | 0.189 | 0.161 | 0.18 | 0.186 | 0.163 | 0.167
12 | NCI-H1355 | 0.881 | 1.17 | 0.479 | 0.684 | 0.323 | 0.511 | 0.596 | 0.478 | 0.255 | 0.224 | 0.918 | 1.15 | 0.5 | 0.674 | 0.306 | 1.09 | 1.09 | 0.617 | 0.919 | 0.46
13 | HCC-78 | 0.728 | 0.798 | 0.341 | 0.313 | 0.158 | 0.335 | 0.356 | 0.357 | 0.269 | 0.355 | 0.31 | 0.334 | 0.241 | 0.227 | 0.181 | 0.901 | 0.954 | 0.84 | 0.916 | 0.906
14 | NCI-H1563 | – | – | – | – | – | – | – | – | – | – | 0.95 | 0.757 | 0.685 | 0.595 | 0.448 | 0.693 | 0.806 | 0.547 | 0.425 | 0.371
15 | HCC-15 | 0.652 | 0.647 | 0.626 | 0.31 | 0.125 | 0.308 | 0.343 | 0.303 | 0.148 | 0.153 | 0.799 | 0.821 | 0.856 | 0.342 | 0.125 | 0.213 | 0.222 | 0.218 | 0.183 | 0.171
16 | EKVX | 0.892 | 0.983 | 0.759 | 0.446 | 0.251 | 0.434 | 0.413 | 0.365 | 0.191 | 0.204 | 0.868 | 0.916 | 0.891 | 0.816 | 0.414 | 0.351 | 0.443 | 0.344 | 0.285 | 0.248

Source: the supplement of paper PMC10307832
